From ChEMBL document CHEMBL1201862, “PubChem BioAssay data set” (2004)
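The compound was tested at five concentrations on cells cultured in 96-well plates, with a 48-hour exposure period. GI50: concentration for 50% inhibition of growth.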 Active and inactive are the calls of the source. No stated cut-off is given here; in the data, active = GI50 up to about 1.1 µM and inactive = higher.

Experiments:
Experiment in all cases: NCI-60 cell line screen, 48 h
[1] = system: COLO 205
[2] = system: HCT-116
[3] = system: IGROV-1
[4] = system: K562
[5] = system: NCI-H460
[6] = system: OVCAR-5
[7] = system: OVCAR-8
[8] = system: RPMI-8226
[9] = system: SF-268
[10] = system: SK-MEL-2
[11] = system: SN12C
[12] = system: SR
[13] = system: SW-620
[14] = system: UACC-257
[15] = system: UO-31
[16] = system: HCT-15
[17] = system: NCI-H522
[18] = system: OVCAR-4

Row | SMILES | GI50 [1] | GI50 [2] | GI50 [3] | GI50 [4] | GI50 [5] | GI50 [6] | GI50 [7] | GI50 [8] | GI50 [9] | GI50 [10] | GI50 [11] | GI50 [12] | GI50 [13] | GI50 [14] | GI50 [15] | GI50 [16] | GI50 [17] | GI50 [18]
1 | Clc1ccc2c(Cl)nc(-c3ccccc3)nc2c1 | 41.2 µM (inactive) | 27.4 µM (inactive) | 24.5 µM (inactive) | 23.4 µM (inactive) | 24.3 µM (inactive) | 51.8 µM (inactive) | 34 µM (inactive) | 10 µM (inactive) | 24.9 µM (inactive) | 26.4 µM (inactive) | 21.8 µM (inactive) | 25.2 µM (inactive) | 33.9 µM (inactive) | 26.2 µM (inactive) | 24.5 µM (inactive) |  |  | 
2 | N=C(N)NCCCC(Nc1c2ccccc2[n+]([O-])c2ccccc12)C(=O)O (configuration not stated) | 27.3 µM (inactive) | 24.9 µM (inactive) | > 100 µM (inactive) | 27 µM (inactive) | 46 µM (inactive) | 56.5 µM (inactive) | 31.6 µM (inactive) | 10.4 µM (inactive) | 56.4 µM (inactive) | 88.3 µM (inactive) | 44.1 µM (inactive) |  | 59.2 µM (inactive) |  | 30.8 µM (inactive) | 36.8 µM | 29 µM (inactive) | 65.5 µM (inactive)
3 | O=Cc1cn(C(=O)c2ccccc2)c2ccccc12 |  | 43.2 µM (inactive) | > 100 µM (inactive) | 70 µM (inactive) | > 100 µM (inactive) | > 100 µM (inactive) | > 100 µM (inactive) | 37.2 µM (inactive) |  | > 100 µM (inactive) |  |  | > 100 µM (inactive) | 83 µM (inactive) | 36.6 µM (inactive) | > 100 µM |  | > 100 µM (inactive)
4 | CCOC(=O)[C@H]1Nc2ccc(Cl)cc2[C@H]2OCC[C@@H]12 | > 100 µM (inactive) | > 100 µM (inactive) | > 100 µM (inactive) | > 100 µM (inactive) | > 100 µM (inactive) | > 100 µM (inactive) | > 100 µM (inactive) |  | > 100 µM (inactive) | 75 µM (inactive) | > 100 µM (inactive) |  | > 100 µM (inactive) | > 100 µM (inactive) |  | > 100 µM | > 100 µM (inactive) | > 100 µM (inactive)
5 | O=CC1CCCc2ccccc21 (configuration not stated) | > 42.7 µM (inactive) | > 50.1 µM (inactive) | > 100 µM (inactive) | > 60 µM (inactive) | > 61.8 µM (inactive) | > 100 µM (inactive) | > 100 µM (inactive) | > 43.1 µM (inactive) | > 31.6 µM (inactive) | > 100 µM (inactive) | > 100 µM (inactive) | > 100 µM (inactive) | > 40.4 µM (inactive) | > 74.3 µM (inactive) | > 100 µM (inactive) | > 51.5 µM | > 79.6 µM (inactive) | > 100 µM (inactive)
6 | O=C1CCC(=O)c2cc(Br)ccc2N1 | > 100 µM (inactive) | > 40.8 µM (inactive) | > 100 µM (inactive) | > 100 µM (inactive) | > 100 µM (inactive) | > 100 µM (inactive) | > 100 µM (inactive) | > 67.5 µM (inactive) | > 100 µM (inactive) | > 100 µM (inactive) | > 100 µM (inactive) | 26.4 µM (inactive) | > 57.8 µM (inactive) | > 100 µM (inactive) | > 100 µM (inactive) | > 100 µM | > 100 µM (inactive) | > 100 µM (inactive)
7 | O=P(Nc1cccc(Cl)c1)(Oc1ccccc1)N(CCCl)CCCl (configuration not stated) | 15.9 µM (inactive) | 13.1 µM (inactive) | 15.8 µM (inactive) | 99.3 µM (inactive) |  | 14.5 µM (inactive) | 17 µM (inactive) |  | 15.1 µM (inactive) | 12.6 µM (inactive) | 14.9 µM (inactive) | 31.6 µM (inactive) | 16.7 µM (inactive) | 14.1 µM (inactive) | 85.9 µM (inactive) | 13.5 µM | 99.5 µM (inactive) | 11.7 µM (inactive)
8 | COc1ccc(C2C(Cl)C(=O)N2NC(=O)c2ccc(N)cc2)cc1 (configuration not stated) | > 100 µM (inactive) | > 100 µM (inactive) | > 100 µM (inactive) | > 100 µM (inactive) | > 100 µM (inactive) | > 100 µM (inactive) | > 100 µM (inactive) | > 100 µM (inactive) |  | > 100 µM (inactive) | > 100 µM (inactive) |  | > 100 µM (inactive) | > 100 µM (inactive) | > 100 µM (inactive) | > 100 µM | > 100 µM (inactive) | > 100 µM (inactive)
9 | Cc1ccc2c(c1CCCC(C)(C)O)C(=O)C(O)=C(C(C)C)C2=O | > 100 µM (inactive) | 60.5 µM (inactive) | 90.4 µM (inactive) | 48.1 µM (inactive) | 47.2 µM (inactive) |  | 62.5 µM (inactive) | 39.1 µM (inactive) | 59.4 µM (inactive) | 36.7 µM (inactive) | 78.3 µM (inactive) | 41.2 µM (inactive) | > 100 µM (inactive) |  | 76 µM (inactive) | 41.9 µM | > 100 µM (inactive) | > 100 µM (inactive)
10 | COC(=O)C(Cc1nc2ccccc2nc1O)C(=O)C(=O)Nc1ccc(F)cc1 (configuration not stated) | 37.9 µM (inactive) | 41.2 µM (inactive) | 53.5 µM (inactive) |  | > 100 µM (inactive) |  | 20 µM (inactive) |  | 13.1 µM (inactive) | 34.4 µM (inactive) | 40.9 µM (inactive) | 33 µM (inactive) | 21.9 µM (inactive) | > 100 µM (inactive) | > 100 µM (inactive) | > 100 µM | 10.3 µM (inactive) | 77.3 µM (inactive)
11 | COc1ccc(/C=C/C(=N\NC(=O)c2ccccc2)c2sc(Nc3ccc([N+](=O)[O-])cc3)nc2C)cc1OC | 21.3 µM (inactive) | 7.31 µM (inactive) | > 10 µM (inactive) | 3.18 µM (inactive) | 16.5 µM (inactive) | 27.7 µM (inactive) | 9.57 µM (inactive) |  | 13.2 µM (inactive) | 15.9 µM (inactive) | 13.9 µM (inactive) | 5.18 µM (inactive) | 16 µM (inactive) | 12.6 µM (inactive) | 15.6 µM (inactive) | 7.89 µM | 4.24 µM (inactive) | 11.6 µM (inactive)
12 | Cc1ccc(C(=O)CC2=Nc3nnc(CCCCCCCc4nnc5n4C(=O)C(CC(=O)c4ccc(C)cc4)=N5)n3C2=O)cc1 | > 100 µM (inactive) | > 100 µM (inactive) | > 100 µM (inactive) | > 100 µM (inactive) | > 100 µM (inactive) | > 100 µM (inactive) | > 100 µM (inactive) | > 100 µM (inactive) | > 100 µM (inactive) |  | > 100 µM (inactive) | > 100 µM (inactive) | > 100 µM (inactive) | > 100 µM (inactive) | > 100 µM (inactive) | > 100 µM | > 100 µM (inactive) | > 100 µM (inactive)
13 | CC1(c2ccc(Cl)cc2)C2C(=O)NC(=O)C1C(=O)NC2=O (configuration not stated) | > 100 µM (inactive) |  | > 100 µM (inactive) | > 100 µM (inactive) | > 100 µM (inactive) | > 100 µM (inactive) | > 100 µM (inactive) | > 100 µM (inactive) | > 100 µM (inactive) | > 100 µM (inactive) | > 100 µM (inactive) |  | > 100 µM (inactive) | > 100 µM (inactive) | > 100 µM (inactive) | > 100 µM | > 100 µM (inactive) | > 100 µM (inactive)
14 | CCOC(=O)CC(=O)ON(C)C(=O)Cc1ccccc1 | > 100 µM (inactive) | > 100 µM (inactive) | > 100 µM (inactive) |  | > 100 µM (inactive) | > 100 µM (inactive) | > 100 µM (inactive) | > 100 µM (inactive) | > 100 µM (inactive) | > 100 µM (inactive) | > 100 µM (inactive) | > 100 µM (inactive) | > 100 µM (inactive) | > 100 µM (inactive) | > 100 µM (inactive) | > 100 µM | > 100 µM (inactive) | > 100 µM (inactive)
15 | C[P+](C)(C)c1ccccc1 | > 100 µM (inactive) | > 100 µM (inactive) | > 100 µM (inactive) | > 100 µM (inactive) | > 100 µM (inactive) | > 100 µM (inactive) | > 100 µM (inactive) | > 100 µM (inactive) | > 100 µM (inactive) | > 100 µM (inactive) | > 100 µM (inactive) | > 100 µM (inactive) | > 100 µM (inactive) | > 100 µM (inactive) | > 100 µM (inactive) | > 100 µM |  | > 100 µM (inactive)
16 | Cc1cc(N(CCC#N)CCC#N)ccc1/N=N/c1cccc(C(=O)O)c1 | > 100 µM (inactive) |  | > 100 µM (inactive) | > 100 µM (inactive) |  | > 100 µM (inactive) | > 100 µM (inactive) |  | > 100 µM (inactive) | > 100 µM (inactive) | > 100 µM (inactive) |  | > 100 µM (inactive) | > 100 µM (inactive) | > 100 µM (inactive) | > 100 µM | 38.8 µM (inactive) | > 100 µM (inactive)
17 | COc1ccc(/C(Cl)=C(\CN(C)C)c2ccc(OC)c(OC)c2)cc1OC.[B] |  | 38.8 µM (inactive) | > 100 µM (inactive) | > 100 µM (inactive) | > 100 µM (inactive) | > 100 µM (inactive) | > 100 µM (inactive) | > 100 µM (inactive) | > 100 µM (inactive) |  | > 100 µM (inactive) | > 100 µM (inactive) | > 100 µM (inactive) | > 100 µM (inactive) | > 100 µM (inactive) | > 100 µM |  | 1.19 µM (inactive)
18 | O=C(c1ccc(O)cc1O)C1C(c2ccc(O)cc2)OC(c2ccc(O)cc2)C1C(=O)c1ccc(O)cc1O (configuration not stated) |  |  |  |  | 42.8 µM (inactive) | 12.6 µM (inactive) | 21.8 µM (inactive) |  | 17.1 µM (inactive) | 22 µM (inactive) | > 10 µM (inactive) |  | 30.6 µM (inactive) | 20.5 µM (inactive) | 18.7 µM (inactive) |  | 16.5 µM (inactive) | 28.4 µM (inactive)
